The results in this text go back to ChEMBL document CHEMBL5244272 (Eur J Med Chem, 2021).

The subject of test [1] is Plasmodium falciparum. The test is described as follows: Antimalarial activity against Plasmodium falciparum K1. The test is classed as functional, organism-based.
The subject of test [2] is Plasmodium falciparum. The test is described as follows: Antimalarial activity against Plasmodium falciparum NF54. The test is classed as functional, organism-based.
Test [3] relates to Plasmodium falciparum. Put plainly: Antimalarial activity against Plasmodium falciparum Dd2. The test is classed as functional, organism-based.
Test [4] relates to Plasmodium falciparum. The test is described as follows: Antimalarial activity against chloroquine-sensitive Plasmodium falciparum NF54. The test is classed as functional, organism-based.
For test [5], the system named is Plasmodium falciparum. Put plainly: Potency index, ratio of artemisinin IC50 to test compound IC50 for Plasmodium falciparum D6. The test is classed as functional.
For test [6], the system named is Plasmodium falciparum. Put plainly: Potency index, ratio of artemisinin IC50 to test compound IC50 for Plasmodium falciparum W2. The test is classed as functional.
Test [7] concerns Plasmodium falciparum. Put plainly: Antimalarial activity against Plasmodium falciparum D10. The test is classed as functional, organism-based.
The subject of test [8] is Plasmodium falciparum. Put plainly: Antimalarial activity against ART-resistant Plasmodium falciparum harboring R539T mutant assessed as increase in survival at 700 nM. The test is classed as functional.
Test [9] deals with Plasmodium falciparum. The test is described as follows: Antimalarial activity against chloroquine sensitive Plasmodium falciparum FCR-3. The test is classed as functional, organism-based.
For test [10], the system named is Plasmodium falciparum. Put plainly: Antimalarial activity against Plasmodium falciparum W2. The test is classed as functional, organism-based.
For test [11], the system named is Plasmodium berghei. Put plainly: Antimalarial activity against Plasmodium berghei infected in sc dosed mouse. The test is classed as functional.
Test [12] concerns Plasmodium falciparum. The test is described as follows: Antimalarial activity against chloroquine-resistant Plasmodium falciparum K1. The test is classed as functional, organism-based.
For test [13], the system named is Plasmodium berghei. The test is described as follows: Antimalarial activity against Plasmodium berghei infected in mouse. The conditions noted are these: Plasmodium berghei. The test is classed as functional.

In general, IC50 refers to the concentration that inhibits the measured activity by half. The low end stands for greater potency in that assay, the high end for weaker potency in that assay. Turning to `C[C@H]1[C@H](N2CCN(C(=O)c3ccc(C(F)(F)F)cc3)CC2)O[C@@H]2O[C@]3(C)CC[C@H]4[C@H](C)CC[C@@H]1[C@@]24OO3`, the IC50 with Plasmodium falciparum [1] came out at 3.5 nM; with Plasmodium falciparum [2] it was 0.49 nM; in the test on Plasmodium falciparum [3], 13.2 nM.
Regarding `C[C@H]1[C@H](OC(=O)c2cccc([N+](=O)[O-])c2)O[C@@H]2O[C@]3(C)CC[C@H]4[C@H](C)CC[C@@H]1[C@@]24OO3`, inhibition in the test on Plasmodium falciparum [4] was half-maximal at 10.6 nM (IC50).
Regarding `CC(=O)CN1C(=O)[C@H](C)[C@@H]2CC[C@@H](C)[C@@H]3CC[C@]4(C)OO[C@]32[C@H]1O4`, the “Ratio IC50” value in the test on Plasmodium falciparum [5] stood at 3.2; with Plasmodium falciparum [6], 3.
In the case of `C[C@H]1[C@@H](OCc2ccc(C(=O)N(CCNc3ccnc4cc(Cl)ccc34)CC(=O)NC(C)(C)C)cc2)O[C@@H]2O[C@]3(C)CC[C@H]4[C@H](C)CC[C@@H]1[C@@]24OO3`, the IC50 worked out at 19 nM in the test on Plasmodium falciparum [1] and 27 nM in the test with Plasmodium falciparum [7].
`CCC(O)C[C@H]1O[C@@H]2O[C@]3(C)CC[C@H]4[C@H](C)CC[C@@H]([C@H]1C)[C@@]24OO3` (stereo not given in full): the “Ratio IC50” value was found to be 5.8 with Plasmodium falciparum [5] and 4.8 in the test with Plasmodium falciparum [6].
Regarding `N[C@H]1CC[C@@H](Oc2ccc([C@H]3CC[C@]4(CC3)OOC3(O4)C4CC5CC(C4)CC3C5)cc2)CC1` (stereo not given in full), the Activity in the test with Plasmodium falciparum [8] is below 0.01%.
Regarding `COC(=O)/C=C/N1C(=O)[C@H](C)[C@@H]2CC[C@@H](C)[C@@H]3CC[C@]4(C)OO[C@]32[C@H]1O4`, the “Ratio IC50” value was 2 in the test with Plasmodium falciparum [5] and 1.2 in the test with Plasmodium falciparum [6].
Take `C[C@H]1[C@H](N2CCN(C(=O)Nc3ccc(F)cc3)CC2)O[C@@H]2O[C@]3(C)CC[C@H]4[C@H](C)CC[C@@H]1[C@@]24OO3`: the IC50 in the test on Plasmodium falciparum [1] amounted to 0.85 nM; with Plasmodium falciparum [2] it was 1.21 nM; in the test with Plasmodium falciparum [3], 9.2 nM.
In the test with Plasmodium falciparum [9], `C[C@H]1[C@H](n2cc(-c3cccc(Cl)c3)nn2)O[C@@H]2O[C@]3(C)CC[C@H]4[C@H](C)CC[C@@H]1[C@@]24OO3` gave an IC50 of 1.3 nM.
For `C[C@H]1[C@H](N2CCN([C@@H]3O[C@H](CO)[C@H](O)[C@H]3O)CC2)O[C@@H]2O[C@]3(C)CC[C@H]4[C@H](C)CC[C@@H]1[C@@]24OO3`, the IC50 in the test on Plasmodium falciparum [10] came to 0.58 nM; in the test with Plasmodium falciparum [7], 0.66 nM.
Take `CC(=O)/C=C/N1C(=O)[C@H](C)[C@@H]2CC[C@@H](C)[C@@H]3CC[C@]4(C)OO[C@]32[C@H]1O4`: the “Ratio IC50” value in the test on Plasmodium falciparum [5] was determined as 2.54; in the test with Plasmodium falciparum [6] it was 1.25.
The ED50 is the dose that gives a 50% effect, or the effect in half of the subjects. The low end stands for greater potency, the high end for weaker potency. In the test with Plasmodium berghei [11] (Plasmodium berghei), `Cc1ccc([C@@H]2O[C@@H]3O[C@]4(C)CC[C@H]5[C@H](C)CC[C@@H]([C@H]2C)[C@@]35OO4)o1` registered an ED50 of 0.9 mg/kg.
The compound `CC1(OCc2ccccc2)CCC2CC1OO[C@]2(/C=C\c1ccc(Cl)cc1)c1ccccc1` (stereo not given in full) came in with an IC50 with Plasmodium falciparum [12] of 23 nM.
Turning to `Cc1ccccc1COC12CCCC(C1)C(C)(C)OO2` (stereo not given), the figures for the IC50 in the test with Plasmodium falciparum [10] and in the test on Plasmodium falciparum [7] were 630 nM and 740 nM, respectively.
Turning to `C[C@H]1[C@H](OC(=O)c2ccc([N+](=O)[O-])cc2)O[C@@H]2O[C@@]3(C)CC[C@H]4[C@H](C)CC[C@@H]1[C@@]24OO3`, the midpoint of inhibition in the test on Plasmodium falciparum [4], the IC50, lay at 8.54 nM.
On to `C[C@H]1[C@@H](OCc2ccc(C(=O)N(CCCNc3ccnc4cc(Cl)ccc34)CC(=O)NC3CCCCC3)cc2)O[C@@H]2O[C@]3(C)CC[C@H]4[C@H](C)CC[C@@H]1[C@@]24OO3`, for which the IC50 is 21 nM with Plasmodium falciparum [1] and 35 nM in the test with Plasmodium falciparum [7].
As to `C[C@H]1[C@@H](OCc2ccc(C(=O)N(CCNc3ccnc4cc(Cl)ccc34)CC(=O)NC3CCCCC3)cc2)O[C@@H]2O[C@]3(C)CC[C@H]4[C@H](C)CC[C@@H]1[C@@]24OO3`, the IC50 with Plasmodium falciparum [1] came out at 23 nM; in the test on Plasmodium falciparum [7] it was 26 nM.
As for `CC1(C)OOC2(OCC34CC5CC(CC(C5)C3)C4)CCCC1C2` (stereo not given), the IC50 with Plasmodium falciparum [10] is 270 nM; with Plasmodium falciparum [7] it was 330 nM.
On the same counts, the results for `CC1(C)OOC2(OCc3ccccc3)CCCC1C2` (stereo not given) are 430 nM and 800 nM.
For `CC1(C)OOC2(OCCC34CC5CC(CC(C5)C3)C4)CCCC1C2` (stereo not given), in that order: 440 nM and 580 nM.
For `C[C@H]1[C@H](N2CCN([C@@H]3O[C@@H](C)[C@H](O)[C@@H](O)[C@H]3O)CC2)O[C@@H]2O[C@]3(C)CC[C@H]4[C@H](C)CC[C@@H]1[C@@]24OO3`, in that order: 0.74 nM and 0.74 nM.
As for `C[C@@H]1CC[C@H]2[C@@H](C)C(=O)N(CC(=O)c3ccccc3)[C@@H]3O[C@]4(C)CC[C@@H]1[C@@]23OO4`, the “Ratio IC50” value with Plasmodium falciparum [5] and with Plasmodium falciparum [6] was 1.8 throughout.
With `c1cc([C@H]2CC[C@]3(CC2)OOC2(O3)C3CC4CC(C3)CC2C4)ccc1OCCC1CCNCC1` (stereo not given in full), the Activity in the test on Plasmodium falciparum [8] is listed as below 0.01%.
For `c1cc([C@H]2CC[C@]3(CC2)OOC2(O3)C3CC4CC(C3)CC2C4)ccc1OCCN1CCOCC1` (stereo not given in full), the Activity in the test with Plasmodium falciparum [8] is below 0.01%.
As to `FC1(F)C2CC3CC1CC(C2)C31OO[C@]2(CC[C@@H](c3ccc(OCCN4CCOCC4)cc3)CC2)O1` (stereo not given in full), in the test on Plasmodium falciparum [8], the Activity is on record as below 0.01%.
As for `CC1(C)OOC2(OCCCC34CC5CC(CC(C5)C3)C4)CCCC1C2` (stereo not given), the IC50 is 160 nM in the test with Plasmodium falciparum [10] and 240 nM in the test with Plasmodium falciparum [7].
With `C[C@@H]1CC[C@H]2[C@@H](C)C(=O)N(/C=C\C#N)[C@@H]3O[C@H]4CC[C@@H]1[C@@]23OO4`, the “Ratio IC50” value in the test on Plasmodium falciparum [5] stood at 2.7; in the test with Plasmodium falciparum [6] it was 1.7.
Compound `COC(=O)CC[C@@H](C)[C@H]1CC[C@H]2[C@@H]3CC[C@@H]4CC5(CC[C@]4(C)[C@H]3C[C@H](OC(C)=O)[C@]12C)OOC(c1ccccc1)(C(F)(F)F)O5` (stereo not given in full) registered an IC50 in the test with Plasmodium falciparum [12] above 231 nM.
On to `CC1(C)CC(O)(COc2ccc([C@H]3CC[C@]4(CC3)OOC3(O4)C4CC5CC(C4)CC3C5)cc2)CC(C)(C)N1` (stereo not given in full), for which the Activity with Plasmodium falciparum [8] is listed as below 0.01%.
Turning to `CCCCCC[C@H]1C(=O)O[C@@H]2O[C@]3(C)CC[C@H]4[C@H](C)CC[C@@H]1[C@@]24OO3`, in the test on Plasmodium berghei [11], the IC100 was determined as 8 mg/kg/day.
Take `C[C@H]1[C@@H](Oc2ccc(C(F)(F)F)cc2)O[C@@H]2O[C@]3(C)CC[C@H]4[C@H](C)CC[C@@H]1[C@@]24OO3`: the ED50 in the test with Plasmodium berghei [13] was found to be 2.12 mg/kg.
In the test with Plasmodium falciparum [9], `C[C@H]1[C@H](n2cc(-c3ccc(F)cc3)nn2)O[C@@H]2O[C@]3(C)CC[C@H]4[C@H](C)CC[C@@H]1[C@@]24OO3` yielded an IC50 of 1.4 nM.
As for `CC1(OCc2ccccc2)CCC2CC1OO[C@]2(/C=C\c1ccc(F)cc1)c1ccccc1` (stereo not given in full), half-maximal inhibition in the test on Plasmodium falciparum [12] (IC50) required 29 nM.
With `C[C@H]1[C@H](N2CCN(C(=O)Nc3ccccc3)CC2)O[C@@H]2O[C@]3(C)CC[C@H]4[C@H](C)CC[C@@H]1[C@@]24OO3`, the IC50 in the test with Plasmodium falciparum [2] stood at 1.3 nM; in the test on Plasmodium falciparum [3], 7.5 nM.
For `C[C@H]1[C@@H](CC(O)C(C)(C)C)O[C@@H]2O[C@]3(C)CC[C@H]4[C@H](C)CC[C@@H]1[C@@]24OO3` (stereo not given in full), the “Ratio IC50” value in the test on Plasmodium falciparum [5] stood at 5.4; with Plasmodium falciparum [6], 6.8.
`C[C@H]1[C@H](n2cc(-c3ccccc3C(F)(F)F)nn2)O[C@@H]2O[C@]3(C)CC[C@H]4[C@H](C)CC[C@@H]1[C@@]24OO3` gave an IC50 in the test with Plasmodium falciparum [9] of 4.6 nM.
With `C[C@H]1[C@@H](CCOCc2ccccc2F)O[C@@H]2O[C@]3(C)CC[C@H]4[C@H](C)CC[C@@H]1[C@@]24OO3`, in the test with Plasmodium berghei [13], the ED50 was 5.08 mg/kg.
As to `COC(=O)CC[C@@H](C)[C@H]1CC[C@H]2[C@@H]3CC[C@@H]4CC5(CC[C@]4(C)[C@H]3C[C@H](OC(C)=O)[C@]12C)OOC(C)(C(F)(F)F)O5` (stereo not given in full), the IC50 in the test on Plasmodium falciparum [12] was above 231 nM.
